In patent publication US9096543B2, “Nuclear transport modulators and uses thereof” (Karyopharm Therapeutics Inc., priority 2012, dated 2015):

Assays:
[1] = MTT Cell Proliferation Assay (CellTiter 96 AQueous One Solution, MTS); format: cell-based; settings: human; 72 h treatment; cell line not given; read-out: Cytotoxicity [IC50]
From the text: The CellTiter 96® AQueous One Solution cell proliferation assay (Promega) was used on MM1.S, Jurkat and HCT-116 cells to study the cytotoxic and cytostatic properties of the compounds. The assay is based on the cleavage of the tetrazolium salt, MTS, in the presence of an electron-coupling reagent PES (phenazine ethosulfate). The MTS tetrazolium compound is bioreduced by cells into a colored formazan product that is soluble in tissue culture medium. This conversion is presumably accomplished by NADPH or NADH produced by dehydrogenase enzymes in metabolically active cells. Assays are performed by adding a small amount of the CellTiter 96® AQueous One solution reagent directly to culture wells, incubating for 1-4 hours and then recording the absorbance at 490 nm with a 96-well plate reader. […] The cells were seeded at 5×10^3 to 1.5×10^4 cells (depending on cell type) in each well of 96-well plate in 100 μL of fresh culture medium and adherent cells were allowed to attach for overnight. The stock solutions of the compounds were diluted in cell culture medium to obtain eight concentrations of each drug, ranging from 1 nM to 30 μM and DMSO at less than 1% v/v was used as a negative control. After 72 h of treatment 20 μl of CellTiter 96® AQueous reagent was added into each well of the 96-well assay plates and the plate was incubate at 37° C. for 1-4 hours in a humidified, 5% CO2 atmosphere. Then the absorbance of each well was recorded at 490 nm by using a 96-well plate reader. In most cases the assay was performed in triplicates and the results were presented as half maximal inhibitory concentration (IC50) described below. Optical density versus compound concentration was plotted and analyzed using non linear regression equations (Excel Fit) and the IC50 for each compound was calculated.

[2] = system: PMA-induced psoriasis; assay: PMA-induced psoriasis in female BALB/c mice; format: in vivo; settings: topical
Method: Twenty-four (24) female BALB/c mice, aged 6 to 8 weeks with a body weight between 22 and 30 g were used. The mice were randomized into […]. The grouping of animals was as follows: Group I (Naïve; ethanol), Group II (PMA; ethanol), Group III (PMA; Compound 210 μM) and Group IV (PMA; betamethasone). Twenty (20)μL of PMA (4 μg/20 μL of acetone) was applied topically on the upper surface of pinna of ear of all animals in Group II to Group IV. PMA was applied daily on left ear and on alternate days (M-W-F) on right ear from Day 1 to Day 9. Thirty (30) minutes after application of PMA, vehicle or standard compound (betamethasone) or Compound 2 was applied topically to the ears of animals from different groups. […] Animals were observed daily for a period of 12 days for any treatment related symptoms. Basal ear thickness was recorded in all animals (before application of PMA) using digital screw gauge at time T0 (Day 1). […] Commercially available 100% DMSO (LR Grade) and ethanol (LR Grade) were used to prepare the formulations. PMA was prepared by dissolving 10 mg of PMA in 50.0 mL of acetone. Compound 2 was prepared by dissolving 1.47 mg of Compound 2 in 300 μL of 100% DMSO.

[3] = Brain to plasma ratio (B:P) in mice; format: in vivo; settings: mouse, brain and plasma, 10 mg/kg po, 2 hours post-dose
Method: Brain tissue following collection was rinsed with cold saline, dried on filter paper, weighed and snap-frozen by placing on dry ice. All samples were stored frozen at approximately −80° C. until analysis. […] Plasma samples were treated with the identical method (except homogenization step) and concentration of compound in either matrix was calculated based on the generated standard curves.

[4] = system: Z-138 xenograft tumors; assay: Z-138 lymphoma cell line grown as a xenograft in SCID mice; format: in vivo, CB-17 SCID mice
Method: Z-138 (ATCC # CRL-3001) mantle cell lymphoma cells were obtained from ATCC. These cells were grown in IMEM medium supplemented with 10% horse serum, 1% penicillin and streptomycin, and 2 mM L-glutamine. […] Twenty-four (24) female CB-17 SCID mice (Charles River Labs strain code 236), aged 5 to 6 weeks were used. The SCID mice were inoculated in the left flank with Z-138 cells in a volume of 0.2 mL, equivalent to 4×10^7 cells per mouse. […] Mice were allocated to […] prior to the initiation of treatment based on tumor volume such that mean tumor volume in each group was within the range of 77 to 92 mm^3. […] Animals were fed with Labdiet® 5001 rodent chow and sterile water ad libitum. […] Animals with weight loss of more than 20% of their starting weight were euthanized. Mice with weight loss of more than 15% of their starting weight were not treated again until weight loss recovered to less than 5% of their starting weight. Any animals with a tumor volume of more than 1500 mm^3 were euthanized. Dosing solutions were prepared fresh on each day of dosing. […] This was prepared by dissolving the lyophilized powder in sterile water.

[5] = Pharmacokinetics (plasma AUC) in mice; format: in vivo; settings: mouse, 10 mg/kg po
Method: Blood was collected from mice (N=3) to contribute to the total of 10 time points (pre-dose, 5 min, 15 min, 30 min, 1 hour, 2 hours, 4 hours, 8 hours, 12 hours and 24 hours post dose). Mice were bled on a rotating basis, each mouse contributing 3 time points to the blood collection. At the designated time points, animals were anaesthetized under isoflurane, and approximately 110 μL of blood per time point was collected via retro-orbital puncture into pre-cooled K2EDTA (anti-coagulant) tubes. Blood samples were put on wet ice and centrifuged (2000 g, 5 min at 4° C.) to obtain plasma within 30 minutes of sample collection. All samples were stored frozen at approximately −80° C. until analysis. Prior to analysis, samples were mixed with internal standard (dexamethasone) in acetonitrile, vortexed, centrifuged, and supernatant was injected for analysis. Concentration of compounds in plasma was determined using LC-MS-MS instrumentation (API 4000, Triple Quadruple with electrospray ionization; Acuity Ultra Performance Liquid Chromatography column C18, with MeOH and formic acid as organic solvents). PK parameters including but not limited to Tmax, Cmax, t1/2, AUClast, AUCinf were calculated using WinNonlin Professional 6.2 software package, non-compartmental pharmacokinetic model NCA200.

SMILES | IC50 at 72 h [1] [µM] | anti-psoriatic activity [2] | PMA-induced increases in ear thickness and disease activity index (DAI) ([2]; 10 μM daily, prominent Days 6-8, diminished Day 10 and beyond) | Kp at 2 h [3] | weight loss ([4]; Compound 2 15 mg/kg PO, significant vs vehicle, severe loss limited to a few animals) | antitumor effect ([4]; Compound 2 orally, 7.5 and 15 mg/kg MWF) | AUC(0-inf) [5] [ng·h/mL]
O=C(/C=C\n1cnc(-c2cc(C(F)(F)F)cc(C(F)(F)F)c2)n1)NNC(=O)CN1CCOCC1 [Compound 2, (Z)-3-(3-(3,5-bis(trifluoromethyl)phenyl)-1H-1,2,4-triazol-1-yl)-N′-(2-morpholinoacetyl)acrylohydrazide] | < 1 | statistically significant anti-psoriatic activity | prominent reduction in PMA-induced increases in (i) left and right ear thickness, and (ii) left and right ear DAI | 0.16 | Some weight loss was observed | had antitumor effect at both 7.5 mg/kg and 15 mg/kg doses in a dose dependent manner | 28900
CC(C)(C)C(=O)NNC(=O)/C=C\n1cnc(-c2cc(C(F)(F)F)cc(C(F)(F)F)c2)n1 [Compound 1, (Z)-3-(3-(3,5-bis(trifluoromethyl)phenyl)-1H-1,2,4-triazol-1-yl)-N′-pivaloylacrylohydrazide] | < 1 | – | – | 2.25 | – | – | 33100
